Results as given in US12521335B2, “Cosmetic compositions containing vitamin C compounds and uses thereof” (RoC OPCO LLC, priority 2021, dated 2026).

Experiment: DPPH antioxidant assay
Format: biochemical
Conditions: for DPPH antioxidant activity percent, Avg ± SEM: from 0.1% v/v stock
Text: The purpose of this study was to evaluate the overall antioxidant capacity of the serum formula of Example 1B and gel-cream formula of Example 1C for their ability to reduce the free radical 2,2-Diphenyl-1-picrylhydrazyl ([…] and Singh (2011). Genesis and development of DPPH method of antioxidant assay. (See J. Food Sci Technol. 2011 August; 48(4): 412-422.) Ascorbic Acid (Vitamin C) was used as positive antioxidant control in the assay. The testing involved the suppression of optical density (OD) at 530 nm to a degree, which is proportional to an effective antioxidant activity. Test and control agents were stored at recommended storage temperature until use. An initial 0.1, 1 or 10% v/v dilution was prepared for each test formula in ultra-pure grade water or […]® 355. Serial 2-fold dilutions were prepared for each material and mixed with DPPH in ethanol solution. All samples were compared to diluent-only treated samples used as negative antioxidant activity. Optical density changes at 530 nm were evaluated 10 minutes after addition of DPPH to each sample. Average absorbance was calculated and plotted for each sample concentration. Effective antioxidant inhibition activity based on the change of absorbance of blank (diluent-only) sample (no material added). […] The DPPH antioxidant assay method was performed to measure antioxidant capacity of test materials. The free radical, 2,2-Diphenyl-1-picrylhydrazyl (DPPH) was obtained from Cayman Chemical Co. (Cat. No. 14805) and a 0.2 mM (0.0788 mg/mL) solution was prepared with 200-proof ethanol (Acros Organics, Cat No. 61509-0020). The assay consisted in the evaluation of the overall antioxidant capacity of test materials ([…] and Singh, 2011) for the ability to reduce DPPH (purple color), a stable free radical to DPPHH (Diphenylpicrylhydrazine; light yellow color). The testing involved the suppression of optical density (OD) at 517-530 nm to a degree which is proportional to an effective antioxidant activity. The antioxidant capacity of each material was compared to ascorbic acid (vitamin C) used as standard control. An initial 0.1, 1 or 10% v/v dilution was prepared for each test formula in ultra-pure grade water or […]® 355. Two-fold serial dilutions were made from the stock solution samples. Negative control wells only diluent was added. The vehicle/diluent used was ultra-pure grade water (Cayman Chemical, Co.; Cat No. 400000) or […] Corp.; Lot No. 170310UT14). Diluents were stored at room temperature and handled by the research scientist. To prepare the serum stock formulation (0.1, 1, 10% v/v), 1:10, 1:100 or 1:1000 dilutions were prepared using a positive displacement pipette. To prepare the 20% Ascorbic Acid and 0.05% stock formulation, a 1-dram glass screw-top vial container was pre-weighed and material added to the container followed by addition of neat vehicle to make a 200 mg/mL or […] solution, respectively. Two-fold serial dilutions were made from the stock solution samples. […] Vials were sealed and formulations were immediately used for antioxidant assays.

[1] = DPPH antioxidant activity near 100%

## O=C1O[C@H]([C@@H](O)CO)C(O)=C1O [20% Ascorbic Acid, Ascorbic Acid]
0.001 % v/v
  DPPH antioxidant activity percent, Avg ± SEM: 38 ± 8%
0.002 % v/v
  DPPH antioxidant activity percent, Avg ± SEM: 31 ± 11%
0.003 % v/v
  DPPH antioxidant activity percent, Avg ± SEM: 50 ± 13%
0.006 % v/v
  DPPH antioxidant activity percent, Avg ± SEM: 91 ± 4%
0.013 % v/v
  DPPH antioxidant activity percent, Avg ± SEM: 100 ± 0%
0.025 % v/v
  DPPH antioxidant activity percent, Avg ± SEM: 100 ± 0%
0.050 % v/v
  DPPH antioxidant activity percent, Avg ± SEM: 100 ± 0%
[1]
  Maximum effective Antioxidant Activity: Concentration (% v/v): 0.0125 % v/v
  Maximum effective Antioxidant Activity: Dilution Factor: 8,000
